Our source for the MIC values is ChEMBL document CHEMBL3860027, “α-Pyrones with Diverse Hydroxy Substitutions from Three Marine-Derived Nocardiopsis Strains” (2016).

In assay [1] the test system is Micrococcus luteus. Put plainly: Antibacterial activity against Micrococcus luteus SCSIO ML01 by broth microdilution method. In kind it is functional. On the technique in general: In broth dilution the organism is exposed to a series of concentrations in liquid medium.
The test system of assay [2] is Bacillus subtilis. Kind of assay: Antibacterial activity against Bacillus subtilis SCSIO BS01 by broth microdilution method. The class given is functional.

SMILES strings stand for the structures. In brackets after ≈: the same amount, converted by molar mass.

On to `CCc1ccc(CC(C)C)c(=O)o1`, for which the MIC in assay [1] came out at 32 µg/mL (≈ 178 µM); in assay [2] it was 64 µg/mL (≈ 355 µM).
For `CCc1ccc(CC(C)(C)O)c(=O)o1`, 32 µg/mL (≈ 163 µM) was the least that counted as inhibitory in assay [1] (MIC).
As to `CCc1ccc([C@H](C)CC)oc1=O`, in assay [1], the MIC amounted to 32 µg/mL (≈ 178 µM).
As for `CC[C@@H](C)c1ccc(C)c(=O)o1`, the MIC in assay [2] came to 64 µg/mL (≈ 385 µM).
As to `CC(C)Cc1ccc(C(C)O)oc1=O` (racemic), in assay [1], the MIC was determined as 16 µg/mL (≈ 81.5 µM).

The term MIC denotes the least concentration at which growth counts as inhibited.
